Experimental data reported in publication PMC5969746 (PLoS ONE, 2018).

Tests used:
[1] = biological target: T1, scyllo-inositol dehydrogenase with L-glucose dehydrogenase activity (Pl-scyllo-IDH) (Paracoccus laeviglucosivorans, UniProt K7ZP76); experiment: X-ray crystal structure, […] Å; type: binding
T1 construct: gene lgdA; lgdA in pET21a(+), expressed in E. coli BL21(DE3), Ni-NTA purified; homo-tetramer, active site includes H318 of the adjacent subunit
T1 sequence (K7ZP76 1-372): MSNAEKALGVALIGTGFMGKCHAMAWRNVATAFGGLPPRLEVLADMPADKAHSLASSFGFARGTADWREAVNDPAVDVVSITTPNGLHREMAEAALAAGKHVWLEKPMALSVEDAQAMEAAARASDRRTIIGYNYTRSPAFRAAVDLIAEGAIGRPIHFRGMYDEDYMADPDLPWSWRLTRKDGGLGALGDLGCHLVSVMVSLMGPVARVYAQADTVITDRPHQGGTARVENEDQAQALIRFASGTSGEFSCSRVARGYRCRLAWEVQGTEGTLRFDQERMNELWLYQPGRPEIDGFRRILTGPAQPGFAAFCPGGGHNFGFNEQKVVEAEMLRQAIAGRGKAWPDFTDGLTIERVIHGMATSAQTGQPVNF

[2] = biological target: T1, scyllo-inositol dehydrogenase with L-glucose dehydrogenase activity (Pl-scyllo-IDH); experiment: X-ray crystal structure, […] Å; type: binding; remark: listed apart in the source
[3] = biological target: T1, scyllo-inositol dehydrogenase with L-glucose dehydrogenase activity (Pl-scyllo-IDH); experiment: X-ray crystal structure, […] Å; type: binding; settings: crystal soaked with 100 mM myo-inositol and 25 mM NAD+; active site
[4] = substrate: O[C@H]1[C@H](O)[C@@H](O)[C@H](O)[C@@H](O)[C@@H]1O; experiment: purified protein; type: biochemical, Paracoccus laeviglucosivorans; settings: 20 mM NAD+, 100 mM Tris-HCl, pH 9.0
[5] = biological target: the molecule itself; experiment: crystal structure; homo-tetramer in the asymmetric unit, space group P212121; crystals grown at 20°C by hanging-drop vapor diffusion, 0.1 M sodium acetate pH 4.8-5.4, 12-35% PEG 3350; apo form and complexes with NAD+/NADH and sugars

Molecule: NC(=O)C1=CN([C@@H]2O[C@H](COP(=O)(O)OP(=O)(O)OC[C@H]3O[C@@H](n4cnc5c(N)ncnc54)[C@H](O)[C@@H]3O)[C@@H](O)[C@H]2O)C=CC1 [NADH]
- X-ray crystal structure, 1.8 Å ([1]; complex with L-glucono-1,5-lactone, crystal soaked with NAD+, assigned as NADH): the bound cofactor molecule might therefore be NADH

Molecule: O=C1[C@@H](O)[C@H](O)[C@@H](O)[C@H](O)[C@H]1O [scyllo-inosose]
- X-ray crystal structure, 2.0 Å ([2]; crystal soaked with 100 mM scyllo-inosose and 25 mM NAD+, active site): the carbonyl oxygen located between K106 and H195 formed hydrogen bonds

Molecule: NC(=O)c1ccc[n+]([C@@H]2O[C@H](COP(=O)(O)OP(=O)(O)OC[C@H]3O[C@@H](n4cnc5c(N)ncnc54)[C@H](O)[C@@H]3O)[C@@H](O)[C@H]2O)c1 [NAD^+]
- X-ray crystal structure, 2.0 Å ([2]; complex with scyllo-inosose (also with myo-inositol, 5YA8, 2.3 Å), 25 mM NAD+ soak): myo-inositol/NAD^+ and scyllo-inosose/NAD^+ complexes have been deposited

Molecule: O=C1O[C@@H](CO)[C@H](O)[C@@H](O)[C@@H]1O [L-glucono-1,5-lactone]
- X-ray crystal structure, 1.8 Å ([1]; crystal soaked with 100 mM L-glucose and 25 mM NAD+, active site, NADH complex): bound molecule in the active site was in fact the reaction product of L-glucose oxidation

Molecule: O[C@H]1[C@H](O)[C@@H](O)[C@H](O)[C@@H](O)[C@H]1O [myo-inositol]
- X-ray crystal structure, 2.3 Å [3]: complex structures of Pl-scyllo-IDH with scyllo-inosose and myo-inositol were also determined

B1: scyllo-inositol dehydrogenase with L-glucose dehydrogenase activity (Pl-scyllo-IDH) (Paracoccus laeviglucosivorans; R178A) (protein)
chain: MSNAEKALGVALIGTGFMGKCHAMAWRNVATAFGGLPPRLEVLADMPADKAHSLASSFGFARGTADWREAVNDPAVDVVSITTPNGLHREMAEAALAAGKHVWLEKPMALSVEDAQAMEAAARASDRRTIIGYNYTRSPAFRAAVDLIAEGAIGRPIHFRGMYDEDYMADPDLPWSWALTRKDGGLGALGDLGCHLVSVMVSLMGPVARVYAQADTVITDRPHQGGTARVENEDQAQALIRFASGTSGEFSCSRVARGYRCRLAWEVQGTEGTLRFDQERMNELWLYQPGRPEIDGFRRILTGPAQPGFAAFCPGGGHNFGFNEQKVVEAEMLRQAIAGRGKAWPDFTDGLTIERVIHGMATSAQTGQPVNF
notes: lgdA in pET21a(+), expressed in E. coli BL21(DE3), Ni-NTA purified; homo-tetramer, active site includes H318 of the adjacent subunit
- Km [4]: 40.6 ± 7.2 mM
- kcat [4]: 8.1 ± 0.65 s⁻¹
- kcat/Km [4]: 200 M⁻¹ s⁻¹

B2: Paracoccus laeviglucosivorans scyllo-inositol dehydrogenase (enzyme)
chain: MSNAEKALGVALIGTGFMGKCHAMAWRNVATAFGGLPPRLEVLADMPADKAHSLASSFGFARGTADWREAVNDPAVDVVSITTPNGLHREMAEAALAAGKHVWLEKPMALSVEDAQAMEAAARASDRRTIIGYNYTRSPAFRAAVDLIAEGAIGRPIHFRGMYDEDYMADPDLPWSWRLTRKDGGLGALGDLGCHLVSVMVSLMGPVARVYAQADTVITDRPHQGGTARVENEDQAQALIRFASGTSGEFSCSRVARGYRCRLAWEVQGTEGTLRFDQERMNELWLYQPGRPEIDGFRRILTGPAQPGFAAFCPGGGHNFGFNEQKVVEAEMLRQAIAGRGKAWPDFTDGLTIERVIHGMATSAQTGQPVNF
notes: Protein encoded by the lgdA gene of Paracoccus laeviglucosivorans (scyllo-inositol dehydrogenase, GFO/IDH/MocA family); A selenomethionine-substituted form (E. coli B834(DE3)) was used only for phasing; Crystals were also soaked with NAD+ and L-glucose, myo-inositol or scyllo-inosose; also called Pl-scyllo-IDH; LgdA; source: E. coli BL21(DE3), pET21a(+), purified (Ni-NTA agarose, dialysis)
- stoichiometry N [5]: 4
